Data from the supplement of paper PMC10307832.

Assays:
Experiment in all cases: relative viability (nuclei count vs DMSO), 5 days (fraction); higher = more cells survive
COR-L 105 = test system: COR-L 105
Outline: (§1)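 Relative viability divides the nuclei count in treated wells by that in vehicle wells. Lung cancer cell lines were seeded in 1536-well plates, dosed by pin tool the next day, and fixed and stained after 5 days in one step with final 0.05% Triton X-100, 1% formaldehyde and 1 ug/ml Hoechst. Dosing was a single drug or a fixed anchor-drug dose plus five library-drug doses (not always all listed) in √10 steps, and values are medians of duplicate plates imaged at 4×.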

COR-L23 = test system: COR-L23
Outline: as §1

EKVX = test system: EKVX
Outline: as §1

HARA = test system: HARA
Outline: as §1

HOP-62 = test system: HOP-62
Outline: as §1

NCI-H1355 = test system: NCI-H1355
Outline: as §1

NCI-H1395 = test system: NCI-H1395
Outline: as §1

NCI-H1734 = test system: NCI-H1734
Outline: as §1

NCI-H1755 = test system: NCI-H1755
Outline: as §1

NCI-H1793 = test system: NCI-H1793
Outline: as §1

NCI-H1993 = test system: NCI-H1993
Outline: as §1

NCI-H2009 = test system: NCI-H2009
Outline: as §1

NCI-H2170 = test system: NCI-H2170
Outline: as §1

NCI-H2228 = test system: NCI-H2228
Outline: as §1

NCI-H2342 = test system: NCI-H2342
Outline: as §1

NCI-H2347 = test system: NCI-H2347
Outline: as §1

NCI-H322M = test system: NCI-H322M
Outline: as §1

NCI-H358 = test system: NCI-H358
Outline: as §1

NCI-H522 = test system: NCI-H522
Outline: as §1

NCI-H647 = test system: NCI-H647
Outline: as §1

NCI-H838 = test system: NCI-H838
Outline: as §1

PC-14 = test system: PC-14
Outline: as §1

SK-MES-1 = test system: SK-MES-1
Outline: as §1

UMC-11 = test system: UMC-11
Outline: as §1

C[C@@H]1CN(CC(=O)Nc2ccc3c(c2)Cc2cccc(-c4cc(=O)cc(N5CCOCC5)o4)c2S3)C[C@H](C)O1 + O=C(c1cc(Cc2n[nH]c(=O)c3ccccc23)ccc1F)N1CCN(C(=O)C2CC2)CC1 [Olaparib] (partner 8 µM)
relative viability (COR-L 105; first compound 0.04 µM): 0.772
relative viability (COR-L 105; first compound 0.1265 µM): 0.786
relative viability (COR-L 105; first compound 0.4 µM): 0.822
relative viability (COR-L 105; first compound 4 µM): 0.647
relative viability (COR-L23; first compound 0.04 µM): 0.39
relative viability (COR-L23; first compound 0.1265 µM): 0.329
relative viability (COR-L23; first compound 0.4 µM): 0.323
relative viability (COR-L23; first compound 4 µM): 0.185
relative viability (EKVX; first compound 0.04 µM): 0.862
relative viability (EKVX; first compound 0.1265 µM): 0.921
relative viability (EKVX; first compound 0.4 µM): 0.914
relative viability (EKVX; first compound 4 µM): 0.399
relative viability (HARA; first compound 0.04 µM): 0.932
relative viability (HARA; first compound 0.1265 µM): 0.779
relative viability (HARA; first compound 0.4 µM): 0.87
relative viability (HARA; first compound 4 µM): 0.22
relative viability (HOP-62; first compound 0.04 µM): 0.283
relative viability (HOP-62; first compound 0.1265 µM): 0.442
relative viability (HOP-62; first compound 0.4 µM): 0.452
relative viability (HOP-62; first compound 4 µM): 0.0812
relative viability (NCI-H1355; first compound 0.04 µM): 0.783
relative viability (NCI-H1355; first compound 0.1265 µM): 0.699
relative viability (NCI-H1355; first compound 0.4 µM): 0.664
relative viability (NCI-H1355; first compound 4 µM): 0.482
relative viability (NCI-H1395; first compound 0.1265 µM): 0.482
relative viability (NCI-H1395; first compound 0.4 µM): 0.506
relative viability (NCI-H1395; first compound 4 µM): 0.458
relative viability (NCI-H1734; first compound 0.04 µM): 0.73
relative viability (NCI-H1734; first compound 0.1265 µM): 0.573
relative viability (NCI-H1734; first compound 0.4 µM): 0.613
relative viability (NCI-H1734; first compound 4 µM): 0.551
relative viability (NCI-H1755; first compound 0.04 µM): 0.845
relative viability (NCI-H1755; first compound 0.1265 µM): 0.918
relative viability (NCI-H1755; first compound 0.4 µM): 0.833
relative viability (NCI-H1755; first compound 4 µM): 0.958
relative viability (NCI-H1793; first compound 0.04 µM): 1.01
relative viability (NCI-H1793; first compound 0.1265 µM): 0.784
relative viability (NCI-H1793; first compound 0.4 µM): 0.86
relative viability (NCI-H1793; first compound 4 µM): 0.255
relative viability (NCI-H1993; first compound 0.04 µM): 1.06
relative viability (NCI-H1993; first compound 0.1265 µM): 0.963
relative viability (NCI-H1993; first compound 0.4 µM): 0.942
relative viability (NCI-H1993; first compound 4 µM): 0.81
relative viability (NCI-H2009; first compound 0.04 µM): 0.71
relative viability (NCI-H2009; first compound 0.1265 µM): 0.691
relative viability (NCI-H2009; first compound 0.4 µM): 0.649
relative viability (NCI-H2009; first compound 4 µM): 0.274
relative viability (NCI-H2170; first compound 0.04 µM): 0.648
relative viability (NCI-H2170; first compound 0.1265 µM): 0.609
relative viability (NCI-H2170; first compound 0.4 µM): 0.578
relative viability (NCI-H2170; first compound 4 µM): 0.523
relative viability (NCI-H2228; first compound 0.04 µM): 0.781
relative viability (NCI-H2228; first compound 0.1265 µM): 0.505
relative viability (NCI-H2228; first compound 0.4 µM): 0.571
relative viability (NCI-H2228; first compound 4 µM): 0.174
relative viability (NCI-H2342; first compound 0.04 µM): 0.567
relative viability (NCI-H2342; first compound 0.1265 µM): 0.52
relative viability (NCI-H2342; first compound 0.4 µM): 0.52
relative viability (NCI-H2342; first compound 4 µM): 0.419
relative viability (NCI-H2347; first compound 0.04 µM): 0.636
relative viability (NCI-H2347; first compound 0.1265 µM): 0.545
relative viability (NCI-H2347; first compound 0.4 µM): 0.57
relative viability (NCI-H2347; first compound 4 µM): 0.448
relative viability (NCI-H322M; first compound 0.04 µM): 0.632
relative viability (NCI-H322M; first compound 0.1265 µM): 0.794
relative viability (NCI-H322M; first compound 0.4 µM): 0.81
relative viability (NCI-H322M; first compound 4 µM): 0.643
relative viability (NCI-H358; first compound 0.04 µM): 0.654
relative viability (NCI-H358; first compound 0.1265 µM): 0.66
relative viability (NCI-H358; first compound 0.4 µM): 0.625
relative viability (NCI-H358; first compound 4 µM): 0.178
relative viability (NCI-H522; first compound 0.04 µM): 0.612
relative viability (NCI-H522; first compound 0.1265 µM): 0.667
relative viability (NCI-H522; first compound 0.4 µM): 0.576
relative viability (NCI-H522; first compound 4 µM): 0.614
relative viability (NCI-H647; first compound 0.04 µM): 0.611
relative viability (NCI-H647; first compound 0.1265 µM): 0.436
relative viability (NCI-H647; first compound 0.4 µM): 0.417
relative viability (NCI-H647; first compound 4 µM): 0.0936
relative viability (NCI-H838; first compound 0.04 µM): 0.746
relative viability (NCI-H838; first compound 0.1265 µM): 0.685
relative viability (NCI-H838; first compound 0.4 µM): 0.739
relative viability (NCI-H838; first compound 4 µM): 0.323
relative viability (PC-14; first compound 0.04 µM): 0.249
relative viability (PC-14; first compound 0.1265 µM): 0.169
relative viability (PC-14; first compound 0.4 µM): 0.205
relative viability (PC-14; first compound 4 µM): 0.09
relative viability (SK-MES-1; first compound 0.04 µM): 0.78
relative viability (SK-MES-1; first compound 0.1265 µM): 0.721
relative viability (SK-MES-1; first compound 0.4 µM): 0.686
relative viability (SK-MES-1; first compound 4 µM): 0.252
relative viability (UMC-11; first compound 0.04 µM): 0.32
relative viability (UMC-11; first compound 0.1265 µM): 0.351
relative viability (UMC-11; first compound 0.4 µM): 0.86
relative viability (UMC-11; first compound 4 µM): 0.272
